{
  "source": "patent US8492328B2",
  "about": "“Biomarkers and methods for determining sensitivity to insulin growth factor-1 receptor modulators” (Bristol-Myers Squibb Company, priority 2007, dated 2013)",
  "test_in_all_cases": "In vitro cellular proliferation assay ([3H]-thymidine incorporation)",
  "assay_type_in_all_cases": "cell-based, human",
  "key": {"HT1080/S": {"tested_on": "HT1080/S", "details": "HT1080/S (Fibrosarcoma)", "protocol": "(§1) All pediatric sarcoma and neuroblastoma cell lines were obtained from Dr. Lee Helman at NIH. All cell lines were grown in RPMI medium supplemented with Glutamax (Gibco/Invitrogen #61870-036), 10% inactivated fetal bovine serum (Gibco/Invitrogen #16140-071), 10 mM Hepes, penicillin and streptomycin.\n(§2) Cells were plated at an optimized density for each cell line per well in 96-well microtiter Falcon plates, incubated overnight, and then exposed to a serial dilution of drug. After 72 hours incubation with drug at 37° C., cells were pulsed with 4 μCi/ml [6-3H] thymidine (Amersham Pharmacia Biotech, UK) for 3 hours, trypsinized, harvested onto UniFilter-96, GF/B plates (PerkinElmer, Boston, Mass.) and scintillation was measured on a TopCount NXT (Packard, Conn.). Results were expressed as an IC50, which is the drug concentration required to inhibit cell proliferation by 50% to that of untreated control cells. The mean IC50 and standard deviation (SD) from multiple tests for each cell line were calculated."}, "LAN-1": {"tested_on": "LAN-1", "details": "LAN-1 (Neuroblastoma)", "protocol": "as §1, §2"}, "Rh36": {"tested_on": "Rh36", "details": "Rh36 (Rhabdomyosarcoma)", "protocol": "as §1, §2"}, "SK-LMS-1": {"tested_on": "SK-LMS-1", "details": "SK-LMS-1 (Leiomyosarcoma)", "protocol": "as §1, §2"}, "SK-NSH": {"tested_on": "SK-NSH", "details": "SK-NSH (Neuroblastoma)", "protocol": "as §1, §2"}, "TC71": {"tested_on": "TC71", "details": "TC71 (Ewing)", "protocol": "as §1, §2"}, "[1]": {"details": "Homo sapiens, 72 hours with drug, read-out: IC50"}},
  "data": [
    {"smiles": "Cc1cc(N2CCOCC2)cc2[nH]c(-c3c(NC[C@@H](O)c4cccc(Cl)c4)cc[nH]c3=O)nc12", "note": "[Compound 1, (S)-4-(2-(3-chlorophenyl)-2-hydroxyethylamino)-3-(4-methyl-6-morpholino-1H-benzo[d]imidazol-2-yl)-pyridin-2(1-H)-one]", "values": [
      {"measurement": "Sensitivity Classification", "setting": "HT1080/S", "value": "R (“R” means resistant to the corresponding compounds.)"},
      {"measurement": "IC50", "setting": "HT1080/S; Homo sapiens, HT-1080, 72 hours with drug, read-out: IC50", "value": 1.41, "unit": "µM"},
      {"measurement": "IC50", "setting": "LAN-1; Homo sapiens, LAN1, 72 hours with drug, read-out: IC50", "value": 0.136, "unit": "µM"},
      {"measurement": "Sensitivity Classification", "setting": "LAN-1", "value": "S (“S” means sensitive)"},
      {"measurement": "IC50", "setting": "Rh36; [1]", "value": 1.6, "unit": "µM"},
      {"measurement": "Sensitivity Classification", "setting": "Rh36", "value": "R (“R” means resistant to the corresponding compounds.)"},
      {"measurement": "IC50", "setting": "SK-LMS-1; [1]", "value": 0.5, "unit": "µM"},
      {"measurement": "Sensitivity Classification", "setting": "SK-LMS-1", "value": "R (“R” means resistant to the corresponding compounds.)"},
      {"measurement": "IC50", "setting": "SK-NSH; Homo sapiens, SK-N-SH, 72 hours with drug, read-out: IC50", "value": 0.196, "unit": "µM"},
      {"measurement": "Sensitivity Classification", "setting": "SK-NSH", "value": "S (“S” means sensitive)"},
      {"measurement": "IC50", "setting": "TC71; Homo sapiens, TC-71, 72 hours with drug, read-out: IC50", "value": 0.119, "unit": "µM"},
      {"measurement": "Sensitivity Classification", "setting": "TC71", "value": "S (“S” means sensitive)"}
    ]}
  ]
}
